# Results taken from patent US11013696B2, “Lipids and lipid compositions for the delivery of active agents” (Novartis AG, priority 2013, dated 2021).
# Test: siRNA encapsulation in lipid nanoparticles (SYBR Gold)
# Format: physicochemical
# Conditions: Table 2; FVII siRNA in LNP with the cationic lipid
# Experimental: The lipid nanoparticles (LNPs) were formed by mixing equal volumes of lipids dissolved in alcohol with siRNA dissolved in a citrate buffer by an impinging jet process. The lipid solution contains a cationic lipid compound of the invention, a helper lipid (cholesterol), an optional neutral lipid (DSPC) and a PEG (PEG) lipid at a concentration of 8-16 mg/mL with a target of 12 mg/mL in an alcohol. The siRNA to total lipid ratio is approximately 0.05 (wt/wt). Where a LNP formulation contains four lipid components, the molar ratios of the lipids ranges from 20 to 70 mole percent for the cationic lipid with a target of 40-60, the mole percent of helper lipid ranges from 20 to 70 with a target of 30 to 50, the mole percent of neutral lipid ranges from 0-30, the mole percent of PEG lipid has a range from 1 to 6 with a target of 2 to 5. The concentration of siRNA solution ranges from 0.7 to 1.0 mg/mL with a target of 0.8 to 0.9 mg/mL in a sodium citrate: sodium chloride buffer pH 4-6, with a target of 4.5-5.5. The LNPs are formed by mixing equal volumes of lipid solution in ethanol with siRNA dissolved in a citrate buffer by an impinging jet process through a mixing device with ID ranging from 0.25 to 2.0 mm at a flow rate from 10 to 640 mL/min. The mixed LNP solution is held at room temperature for 0-24 hrs prior to a dilution step. The solution is then concentrated and diafiltered with suitable buffer by ultrafiltration or dialysis process using membranes with a MW cutoff from 30 to 500 KD. The final product is sterile filtered and stored at 4° C.
# The lipid nanoparticles (LNPs) were formed by mixing equal volumes of lipids dissolved in alcohol with siRNA dissolved in a citrate buffer by an impinging jet process. The lipid solution contains a cationic lipid compound of the invention, a helper lipid (cholesterol), an optional neutral lipid (DSPC) and a stealth lipid (5010, S024, S027, or S031) at a concentration of 8-16 mg/mL with a target of 12 mg/mL in an alcohol. The siRNA to total lipid ratio is approximately 0.05 (wt/wt). Where a LNP formulation contains four lipid components, the molar ratios of the lipids ranges from 20 to 70 mole percent for the cationic lipid with a target of 40-60, the mole percent of helper lipid ranges from 20 to 70 with a target of 30 to 50, the mole percent of neutral lipid ranges from 0-30, the mole percent of PEG lipid has a range from 1 to 6 with a target of 2 to 5. The concentration of siRNA solution ranges from 0.7 to 1.0 mg/mL with a target of 0.8 to 0.9 mg/mL in a sodium citrate: sodium chloride buffer pH 4-6, with a target of 4.5-5.5. The LNPs are formed by mixing equal volumes of lipid solution in ethanol with siRNA dissolved in a citrate buffer by an impinging jet process through a mixing device with ID ranging from 0.25 to 2.0 mm at a flow rate from 10 to 640 mL/min. The mixed LNP solution is held at room temperature for 0-24 hrs prior to a dilution step. The solution is then concentrated and diafiltered with suitable buffer by ultrafiltration process using membranes with a MW cutoff from 30 to 500 KD. The final product is sterile filtered and stored at 4° C.
# SYBR Gold flourescence reagent is used for the determination of siRNA encapsulation in the DLP's. DLP's with and without triton x-100 are used to determine the free siRNA and total siRNA amounts. DLP's samples with and without triton X-100 were excited at 485 nm and flourescence emission is measured at 530 nm. Encapsulation efficiency is calculated based on the following formula: Encapsulation efficiency:[([…])/(total siRNA concentration)]×100% Encapsulation Data
row,Compound,% encapsulation siRNA FVII [%]
1,"CCCCCCCCCCCCC(CCOC(=O)CCC(COC(=O)CCCCCCC)COC(=O)CCCCCCC)OC(=O)OCCCN(CC)CC (stereo not shown) [Example 4, 2-(10-dodecyl-3-ethyl-8,14-dioxo-7,9,13-trioxa-3-azahexadecan-16-yl)propane-1,3-diyl dioctanoate]",88.6
2,"CCCCCCCCCCCCC(CCOC(=O)CCC(OCC(CC)CCCC)OCC(CC)CCCC)OC(=O)OCCCN(CC)CC (stereo not shown) [Example 12, 3-(((3-(diethylamino)propoxy)carbonyl)oxy)pentadecyl 4,4-bis((2-ethylhexyl)oxy)butanoate]",91.7
3,"CCCCCCCCCCCCC(CCOC(=O)CCCCCCC(OCCCC)OCCCC)OC(=O)OCCCN(CC)CC (stereo not shown) [Example 20, 3-(((3-(diethylamino)propoxy)carbonyl)oxy)pentadecyl 8,8-dibutoxyoctanoate]",76.7
4,"CCCCCCCCCCCCC(CCOC(=O)CC(CCCCCCCC)CCCCCCCC)OC(=O)OCCCN(C)C (stereo not shown) [Example 24, 3-(((3-(dimethylamino)propoxy)carbonyl)oxy)pentadecyl 3-octylundecanoate]",86.8
5,"CCCCCCCCCCCCC(CCOC(=O)C=C(CCCCCCCC)CCCCCCCC)OC(=O)OCCCN(C)C (stereo not shown) [Example 25, 3-(((3-(dimethylamino)propoxy)carbonyl)oxy)pentadecyl 3-octylundec-2-enoate]",87.1
6,"CCCCCCCCCCCCC(CCOC(=O)CCCCC=C(CCCCCC)CCCCCC)OC(=O)OCCCN(C)C (stereo not shown) [Example 26, 3-(((3-(dimethylamino)propoxy)carbonyl)oxy)pentadecyl 7-hexyltridec-6-enoate]",89.8
7,"CCCCCCCCCCCCC(CCOC(=O)CCCCCCCC(CCCCC)CCCCC)OC(=O)OCCCN(C)C (stereo not shown) [Example 27, 3-(((3-(dimethylamino)propoxy)carbonyl)oxy)pentadecyl 9-pentyltetradecanoate]",86.6
8,"CCCCCCCCCCCCC(CCOC(=O)CCCC(CCCCCCC)CCCCCCC)OC(=O)OCCCN(C)C (stereo not shown) [Example 29, 3-(((3-(dimethylamino)propoxy)carbonyl)oxy)pentadecyl 5-heptyldodecanoate]",86.1
9,"CCCCC/C=C\C/C=C\CCCCCCCC(=O)OCCC(CCCCCCCCCCCC)OC(=O)OCCCN(C)C (stereo not shown) [Example 43, (9Z,12Z)-3-(((3-(dimethylamino)propoxy)carbonyl)oxy)pentadecyl octadeca-9,12-dienoate]",86.8

# Test: Percent encapsulation of mRNA in lipid nanoparticles (Quant-iT Ribogreen)
# Format: physicochemical
# Conditions: Table 2; leptin mRNA in LNP with the cationic lipid
# Experimental: All equipment and disposable supplies are certified free of RNase activity by the manufacturer or rendered RNase free by use of the RNaseZap reagent (LifeTechnologies). mRNA is encapsulated at a cationic lipid amine to mRNA phosphate (N:P) molar ratio of 4:1. Lipids (cationic lipid, DSPC, cholesterol and lipidated PEG or stealth lipid) are dissolved in ethanol. The molar ratios are 40:10:38:2, respectively. The mixture is sonicated briefly, then gently agitated for 5 minutes and then maintained at 37° C. until use. mRNA is exchanged into citrate buffer pH 5.8-6.0 by use of Amicon Ultra-15 centrifugal concentrators, and the final concentration is adjusted to 0.5 mg/ml and held at 37° C. until use. An equal volume of lipids in ethanol, mRNA in citrate buffer, and citrate buffer alone are drawn into disposable syringes. Tubing leading from syringes containing lipids and mRNA are attached to the T junction, and tubing leading from the syringe containing citrate buffer alone is paired with the tubing exiting the T-junction over a collection vessel containing a stir bar on an active stir plate. Syringes are placed in a syringe pump set to expel contents at a flow rate of 1 ml per minute.
# The pump is activated, and the collected mRNA in lipid nanoparticles is transferred to SnakeSkin dialysis tubing (10,000 MWCO, Thermo Scientific). Material is dialyzed against RNAse- and pyrogen-free 1× phosphate buffered saline overnight at 4° C.
# Percent encapsulation of mRNA in lipid nanoparticles is determined using the Quant-iT Ribogreen RNA Assay kit (Life Technologies). The LNP-mRNA suspension is assayed in buffer (mRNA outside the particle), and buffer plus Triton X-100 detergent (total mRNA). The difference calculated is the mRNA inside the particle. Prepare a 1000 ng/mL stock from the RNA provided in the kit and use this to generate a standard curve (0 ng/ml, 15.63-1000 ng/ml) in TE and TE+0.75% Triton X-100. Prepare LNP-mRNA samples in TE buffer and TE buffer +0.75% Triton X-100 with appropriate dilution so that reading is in the range of standard curve (400-2,000 fold). In a 384-well plate (Costar non-treated #3573) add 0.04 ml of standard (in duplicate) or sample (in triplicate) per well. Dilute Ribogreen reagent 240-fold in TE buffer and add 0.06 ml per well. Mix contents of wells and measure fluorescence (excitation=480 nm, emission=520 nm). Subtract background values (no RNA) from standard and test sample values and determine the concentrations of RNA in the samples using the standard curves. Determine the percent encapsulation of the sample by dividing the difference in concentrations between sample+triton and sample in buffer alone by the sample+triton concentration.
row,Compound,% encapsulation mRNA Leptin [%]
1,"CCCCCCCCOC(CCCCC(=O)OCCC(CCCOC(=O)CCCCCCC)OC(=O)OCCCN(CC)CC)OCCCCCCCC (stereo not shown) [Example 128, 6-((6,6-bis(octyloxy)hexanoyl)oxy)-4-(((3-(diethylamino)propoxy)carbonyl)oxy)hexyl octanoate]",86.2
2,"CCCCCCCCCCCCC(CCCC(=O)OCCCC(OCCCCCCCC)OCCCCCCCC)OC(=O)OCCCN(CC)CC (stereo not shown) [Example 129, 4,4-bis(octyloxy)butyl 5-(((3-(diethylamino)propoxy)carbonyl)oxy)heptadecanoate]",96.8
3,"CCCCCCCCCCCCC(CCOC(=O)OCCCC(OCCCCCCCC)OCCCCCCCC)OC(=O)OCCCN(CC)CC (stereo not shown) [Example 130, 4,4-bis(octyloxy)butyl (3-(diethylamino)propyl) pentadecane-1,3-diyl dicarbonate]",97.8
4,"CCCCCCCCCCCCC(CCCOC(=O)CCCCC(COC(=O)CCCCCCC)COC(=O)CCCCCCC)OC(=O)C1(C)CCN(C)C1 (stereo not shown) [Example 132, 2-(5-((4-((1,3-dimethylpyrrolidine-3-carbonyl)oxy)hexadecyl)oxy)-5-oxopentyl)propane-1,3-diyl dioctanoate]",95.5
5,"CCCCCCCCCCCCC(CCCOC(=O)CCCCC(COC(=O)CCCCCCC)COC(=O)CCCCCCC)OC(=O)O[C@H]1CCN(C)C1 (stereo partly drawn) [Example 134, 2-(5-((4-(((((S)-1-methylpyrrolidin-3-yl)oxy)carbonyl)oxy)hexadecyl)oxy)-5-oxopentyl)propane-1,3-diyl dioctanoate]",96.6
6,"CCCCCCCCCCCCC(CCCOC(=O)CCCCC(COC(=O)CCCCCCC)COC(=O)CCCCCCC)OC(=O)O[C@@H]1CCN(C)C1 (stereo partly drawn) [Example 135, 2-(5-((4-(((((R)-1-methylpyrrolidin-3-yl)oxy)carbonyl)oxy)hexadecyl)oxy)-5-oxopentyl)propane-1,3-diyl dioctanoate]",96.2
7,"CCCCCCCCCCCCC(CCCOC(=O)CCCCC(COC(=O)CCCCCCC)COC(=O)CCCCCCC)OC(=O)OC1CCN(C)CC1 (stereo not shown) [Example 137, 2-(5-((4-((((1-methylpiperidin-4-yl)oxy)carbonyl)oxy)hexadecyl)oxy)-5-oxopentyl)propane-1,3-diyl dioctanoate]",98.1
8,"CCCCCCCCCCCCC(CCCOC(=O)CCCCC(COC(=O)CCCCCCC)COC(=O)CCCCCCC)OC(=O)OCCCN(CC)CC (stereo not shown) [Example 138, 2-(10-dodecyl-3-ethyl-8,15-dioxo-7,9,14-trioxa-3-azanonadecan-19-yl)propane-1,3-diyl dioctanoate]",92.9
9,"CCCCCCCCCCCCC(CCOC(=O)CCCCC(COC(=O)CCCCCCC)COC(=O)CCCCCCC)OC(=O)OCCCN1CCCCC1 (stereo not shown) [Example 141, 2-(5-oxo-5-((3-(((3-(piperidin-1-yl)propoxy)carbonyl)oxy)pentadecyl)oxy)pentyl)propane-1,3-diyl dioctanoate]",94.9
10,"CCCCCCCCCCCCC(CCOC(=O)OCCCN(CC)CC)OC(=O)CCCCC(COC(=O)CCCCCCC)COC(=O)CCCCCCC (stereo not shown) [Example 142, 2-(12-dodecyl-3-ethyl-8,14-dioxo-7,9,13-trioxa-3-azaoctadecan-18-yl)propane-1,3-diyl dioctanoate]",92.5
